Among the data in paper PMC3145970, “Specific CLK Inhibitors from a Novel Chemotype for Regulation of Alternative Splicing” (Chemistry & Biology, 2011) are ΔTm values, retold here.

What all share (assay): Thermal stability shift assay
What all share (format): binding

The target of one test is CK1g3 (Homo sapiens, UniProt Q9Y6M4). As to conditions: read-out: Tm shift CK1g3. The procedure:
(§1) Thermal denaturation experiments were carried out in an Mx3005p real-time PCR machine (Agilent) using a protein concentration of 2 μM and an inhibitor concentration of 10 μM. Samples were buffered in 10 mM HEPES (pH 7.5), 500 mM NaCl and a 1:1000 dilution of SyproOrange (Invitrogen).

In the next test the target is T1, Erk1 (Homo sapiens, UniProt P27361).
T1 construct: purchased in-house (SGC Oxford thermal shift panel)
T1 sequence (P27361 whole entry): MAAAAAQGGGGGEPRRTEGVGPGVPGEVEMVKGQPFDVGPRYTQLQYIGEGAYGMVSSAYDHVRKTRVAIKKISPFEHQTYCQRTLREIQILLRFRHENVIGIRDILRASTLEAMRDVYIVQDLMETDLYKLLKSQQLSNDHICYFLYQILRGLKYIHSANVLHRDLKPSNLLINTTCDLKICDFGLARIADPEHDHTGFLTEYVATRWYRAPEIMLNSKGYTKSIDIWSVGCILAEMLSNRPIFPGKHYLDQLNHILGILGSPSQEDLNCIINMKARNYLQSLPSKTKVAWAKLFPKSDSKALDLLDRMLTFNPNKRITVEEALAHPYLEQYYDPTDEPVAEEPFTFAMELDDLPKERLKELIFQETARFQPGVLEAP
As to conditions: read-out: Tm shift Erk1. Here is the method: as §1

The target of a further test is PIM1 (Homo sapiens, UniProt P11309). As to conditions: read-out: Tm shift PIM1. The procedure:
as §1

In another test the target is CDK2 (Homo sapiens, UniProt P24941). As to conditions: read-out: Tm shift CDK2. The procedure:
as §1

The next test concerns the target T2, MST3 (Homo sapiens, UniProt Q9Y6E0).
T2 construct: purchased in-house (SGC Oxford thermal shift panel)
As to conditions: read-out: Tm shift MST3. The procedure:
(§2) Thermal denaturation experiments were carried out in an Mx3005p real-time PCR machine (Agilent) using a protein concentration of 2 μM and an inhibitor concentration of 10 μM. Samples were buffered in 10 mM HEPES (pH 7.5), 500 mM NaCl and a 1:1000 dilution of SyproOrange (Invitrogen). The assay and data evaluation were carried out as described ([Bullock et al., 2005])

A further test addresses PIM2 (Homo sapiens, UniProt Q9P1W9). To be noted: read-out: Tm shift PIM2. The procedure: as §2
The target of another test is T3, RHOK (Homo sapiens, UniProt Q15835).
T3 sequence (Q15835 1-563): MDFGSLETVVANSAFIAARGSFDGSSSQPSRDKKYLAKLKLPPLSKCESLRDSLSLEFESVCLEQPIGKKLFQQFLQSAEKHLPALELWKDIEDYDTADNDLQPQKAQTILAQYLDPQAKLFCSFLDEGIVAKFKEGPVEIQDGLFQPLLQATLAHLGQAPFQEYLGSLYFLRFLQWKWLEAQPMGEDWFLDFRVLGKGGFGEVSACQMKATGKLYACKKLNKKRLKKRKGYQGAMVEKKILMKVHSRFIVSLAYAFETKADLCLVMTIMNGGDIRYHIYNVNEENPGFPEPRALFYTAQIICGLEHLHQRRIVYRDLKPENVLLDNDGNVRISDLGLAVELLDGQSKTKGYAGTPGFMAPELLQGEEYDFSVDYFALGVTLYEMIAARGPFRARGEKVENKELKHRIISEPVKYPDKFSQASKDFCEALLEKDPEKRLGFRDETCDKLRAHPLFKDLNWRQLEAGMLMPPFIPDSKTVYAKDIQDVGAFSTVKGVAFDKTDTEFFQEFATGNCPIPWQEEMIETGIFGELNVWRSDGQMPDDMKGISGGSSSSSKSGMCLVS
As to conditions: read-out: Tm shift RHOK. Here is the method:
as §2

For another test, the target named is T4, DYRK1A (Homo sapiens, UniProt Q13627).
T4 construct: purchased in-house (SGC Oxford thermal shift panel)
To be noted: inhibitor 10 μM; read-out: Tm shift DYRK1A. The procedure:
as §1

For the next test, the target named is T5, DYRK2 (Homo sapiens, UniProt Q92630).
T5 construct: purchased in-house (SGC Oxford thermal shift panel)
T5 sequence (Q92630 1-601): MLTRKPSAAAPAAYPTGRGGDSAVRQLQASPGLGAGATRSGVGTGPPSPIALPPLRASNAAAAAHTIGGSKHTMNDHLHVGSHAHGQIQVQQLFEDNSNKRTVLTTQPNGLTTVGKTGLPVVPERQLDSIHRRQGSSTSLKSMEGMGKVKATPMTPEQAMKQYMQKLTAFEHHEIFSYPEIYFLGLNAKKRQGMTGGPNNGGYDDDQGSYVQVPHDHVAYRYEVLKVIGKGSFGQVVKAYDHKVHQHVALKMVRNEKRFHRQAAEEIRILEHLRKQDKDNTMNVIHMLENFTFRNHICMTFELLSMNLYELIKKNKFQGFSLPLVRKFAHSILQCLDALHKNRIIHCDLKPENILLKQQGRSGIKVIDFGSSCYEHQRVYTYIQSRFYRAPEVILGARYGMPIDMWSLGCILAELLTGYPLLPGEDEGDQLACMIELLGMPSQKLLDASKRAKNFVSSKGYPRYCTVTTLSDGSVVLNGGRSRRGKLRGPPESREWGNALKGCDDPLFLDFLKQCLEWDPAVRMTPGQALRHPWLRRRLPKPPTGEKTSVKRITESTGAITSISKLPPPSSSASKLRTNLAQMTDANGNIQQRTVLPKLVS
To be noted: inhibitor 10 μM; read-out: Tm shift DYRK2. Here is the method:
as §1

For a further test, the target named is T6, CLK3 (Homo sapiens, UniProt P49761).
T6 construct: purchased in-house (SGC Oxford thermal shift panel)
T6 sequence (P49761 whole entry): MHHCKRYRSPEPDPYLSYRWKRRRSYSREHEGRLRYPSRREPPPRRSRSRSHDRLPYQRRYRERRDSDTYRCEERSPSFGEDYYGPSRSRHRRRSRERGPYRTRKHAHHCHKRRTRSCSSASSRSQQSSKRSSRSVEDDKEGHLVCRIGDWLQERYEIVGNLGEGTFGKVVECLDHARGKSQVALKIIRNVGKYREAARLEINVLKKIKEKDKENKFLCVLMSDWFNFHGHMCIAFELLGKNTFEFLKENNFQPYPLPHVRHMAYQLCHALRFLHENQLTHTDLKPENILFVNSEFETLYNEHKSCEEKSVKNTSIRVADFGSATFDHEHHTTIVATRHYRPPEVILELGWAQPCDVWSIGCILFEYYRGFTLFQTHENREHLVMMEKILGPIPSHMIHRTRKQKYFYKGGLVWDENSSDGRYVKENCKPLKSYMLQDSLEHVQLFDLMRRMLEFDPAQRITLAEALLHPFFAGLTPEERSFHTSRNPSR
As to conditions: inhibitor 10 μM; read-out: Tm shift CLK3. The procedure: as §1

The next test addresses CK1e (Homo sapiens, UniProt P49674). As to conditions: inhibitor 10 μM; read-out: Tm shift CK1e. The procedure: as §1
Another test has as its target T7, CLK1 (Homo sapiens, UniProt P49759).
T7 construct: the kinase domains of human CLK1 (residues: 148–484 (C terminus)); hexahistidine tag (TEV-cleavable) (cleaved yes); made in house; host or cells: E. coli BL21(DE3)
As to conditions: inhibitor 10 μM; read-out: Tm shift CLK1. Here is the method:
as §1

In the next test the target is CLK2 (Homo sapiens, UniProt P49760). As to conditions: inhibitor 10 μM; read-out: Tm shift CLK2. Here is the method:
as §1

A further test addresses T8, CLK4 (Homo sapiens, UniProt Q9HAZ1).
T8 construct: purchased in-house (SGC Oxford thermal shift panel)
To be noted: inhibitor 10 μM; read-out: Tm shift CLK4. The procedure: as §1

Read-outs that look alike come from different tables or passages of the source.

Chain of CK1g3 (Q9Y6M4 whole entry): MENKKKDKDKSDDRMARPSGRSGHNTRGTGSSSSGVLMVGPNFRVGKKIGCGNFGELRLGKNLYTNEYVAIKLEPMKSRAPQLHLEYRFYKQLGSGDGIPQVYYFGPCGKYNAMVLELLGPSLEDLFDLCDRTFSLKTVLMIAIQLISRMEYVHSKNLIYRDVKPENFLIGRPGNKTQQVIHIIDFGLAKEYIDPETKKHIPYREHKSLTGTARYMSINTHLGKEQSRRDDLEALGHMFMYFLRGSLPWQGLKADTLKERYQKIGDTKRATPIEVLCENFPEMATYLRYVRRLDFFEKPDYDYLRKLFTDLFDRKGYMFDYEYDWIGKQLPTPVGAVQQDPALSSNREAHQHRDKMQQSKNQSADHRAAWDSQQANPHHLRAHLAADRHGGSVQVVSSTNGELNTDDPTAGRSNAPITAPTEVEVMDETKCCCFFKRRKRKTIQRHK
Chain of PIM1 (P11309 whole entry): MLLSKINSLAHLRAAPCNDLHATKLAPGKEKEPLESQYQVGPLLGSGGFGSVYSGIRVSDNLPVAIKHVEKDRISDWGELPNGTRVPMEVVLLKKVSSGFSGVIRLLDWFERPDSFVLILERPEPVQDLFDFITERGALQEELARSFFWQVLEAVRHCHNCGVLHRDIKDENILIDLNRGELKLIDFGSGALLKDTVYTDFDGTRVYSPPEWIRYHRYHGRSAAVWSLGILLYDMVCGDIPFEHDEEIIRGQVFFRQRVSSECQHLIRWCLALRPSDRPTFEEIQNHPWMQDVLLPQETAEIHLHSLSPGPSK
T2 sequence (Q9Y6E0 whole entry): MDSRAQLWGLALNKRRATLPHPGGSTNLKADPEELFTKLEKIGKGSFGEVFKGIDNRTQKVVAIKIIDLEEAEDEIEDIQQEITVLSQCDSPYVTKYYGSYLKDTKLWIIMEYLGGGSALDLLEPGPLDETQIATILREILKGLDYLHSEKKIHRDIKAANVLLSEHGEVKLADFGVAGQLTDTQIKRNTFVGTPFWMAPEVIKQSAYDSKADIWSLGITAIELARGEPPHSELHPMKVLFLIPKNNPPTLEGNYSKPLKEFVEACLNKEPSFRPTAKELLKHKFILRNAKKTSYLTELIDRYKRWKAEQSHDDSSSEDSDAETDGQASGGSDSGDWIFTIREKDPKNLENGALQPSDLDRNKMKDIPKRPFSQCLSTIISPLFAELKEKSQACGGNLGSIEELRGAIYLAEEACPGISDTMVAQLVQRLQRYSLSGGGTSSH
Chain of CK1e (P49674 whole entry): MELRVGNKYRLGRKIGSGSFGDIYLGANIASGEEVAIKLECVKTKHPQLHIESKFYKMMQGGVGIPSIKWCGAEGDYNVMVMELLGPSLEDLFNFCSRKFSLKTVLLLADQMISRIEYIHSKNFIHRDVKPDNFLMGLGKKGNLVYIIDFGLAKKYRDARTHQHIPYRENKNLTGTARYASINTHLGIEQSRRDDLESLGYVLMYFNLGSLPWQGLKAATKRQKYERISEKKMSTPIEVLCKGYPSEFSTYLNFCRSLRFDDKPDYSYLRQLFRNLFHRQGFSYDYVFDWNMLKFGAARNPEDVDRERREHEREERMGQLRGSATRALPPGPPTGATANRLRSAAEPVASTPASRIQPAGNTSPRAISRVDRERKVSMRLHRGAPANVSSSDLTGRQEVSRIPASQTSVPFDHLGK
Chain of CLK2 (P49760 whole entry): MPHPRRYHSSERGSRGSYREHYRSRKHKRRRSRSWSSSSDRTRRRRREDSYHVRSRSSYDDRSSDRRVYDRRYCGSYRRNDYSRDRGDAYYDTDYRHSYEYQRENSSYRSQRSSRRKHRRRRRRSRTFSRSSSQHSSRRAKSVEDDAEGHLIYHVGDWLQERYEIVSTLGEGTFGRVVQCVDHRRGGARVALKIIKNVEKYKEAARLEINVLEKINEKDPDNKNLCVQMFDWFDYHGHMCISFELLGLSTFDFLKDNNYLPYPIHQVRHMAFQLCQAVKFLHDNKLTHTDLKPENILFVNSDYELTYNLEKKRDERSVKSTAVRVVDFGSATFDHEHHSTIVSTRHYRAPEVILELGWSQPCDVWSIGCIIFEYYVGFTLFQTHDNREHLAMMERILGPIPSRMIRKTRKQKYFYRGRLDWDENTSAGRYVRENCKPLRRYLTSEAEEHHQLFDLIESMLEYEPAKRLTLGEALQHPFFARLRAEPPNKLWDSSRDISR
T8 sequence (Q9HAZ1 whole entry): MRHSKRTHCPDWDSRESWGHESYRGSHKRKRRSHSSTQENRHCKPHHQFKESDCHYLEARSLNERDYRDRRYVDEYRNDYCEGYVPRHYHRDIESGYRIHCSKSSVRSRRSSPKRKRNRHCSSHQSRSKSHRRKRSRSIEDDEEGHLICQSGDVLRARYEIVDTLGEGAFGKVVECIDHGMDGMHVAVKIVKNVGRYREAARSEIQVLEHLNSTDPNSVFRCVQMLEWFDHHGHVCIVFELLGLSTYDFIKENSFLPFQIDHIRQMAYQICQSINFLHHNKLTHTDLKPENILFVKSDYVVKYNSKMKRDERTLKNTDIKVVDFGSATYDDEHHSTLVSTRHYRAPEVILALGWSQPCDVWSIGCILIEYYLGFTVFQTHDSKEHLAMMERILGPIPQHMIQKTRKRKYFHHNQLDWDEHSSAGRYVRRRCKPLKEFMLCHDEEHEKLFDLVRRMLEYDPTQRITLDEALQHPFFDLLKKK
T7 sequence (P49759 148-484): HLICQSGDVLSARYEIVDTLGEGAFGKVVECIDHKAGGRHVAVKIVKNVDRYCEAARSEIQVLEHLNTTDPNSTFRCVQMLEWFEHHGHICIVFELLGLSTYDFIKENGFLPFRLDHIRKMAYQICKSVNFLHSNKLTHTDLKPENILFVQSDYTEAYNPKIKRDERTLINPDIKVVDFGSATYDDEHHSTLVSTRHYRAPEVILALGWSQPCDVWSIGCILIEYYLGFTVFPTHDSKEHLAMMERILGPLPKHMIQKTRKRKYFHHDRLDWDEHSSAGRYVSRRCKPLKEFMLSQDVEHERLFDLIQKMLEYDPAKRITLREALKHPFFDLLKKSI
Chain of PIM2 (Q9P1W9 whole entry): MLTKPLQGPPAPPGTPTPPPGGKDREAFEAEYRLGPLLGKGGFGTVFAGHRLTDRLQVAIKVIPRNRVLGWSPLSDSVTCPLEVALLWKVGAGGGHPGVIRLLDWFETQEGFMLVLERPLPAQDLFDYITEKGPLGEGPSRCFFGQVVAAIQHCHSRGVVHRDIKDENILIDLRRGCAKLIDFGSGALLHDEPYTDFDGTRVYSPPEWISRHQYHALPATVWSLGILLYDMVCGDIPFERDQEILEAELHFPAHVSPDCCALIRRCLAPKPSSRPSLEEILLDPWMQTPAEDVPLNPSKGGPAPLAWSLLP

In the case of `CCOC(=O)c1c(/C(C#N)=C\N)c2ccc(Cl)c(Cl)c2n1C` [KH-CB19, (E)-Ethyl 3-(2-Amino-1-Cyanovinyl)-6,7-Dichloro-1-Methyl-1H-Indole-2-Carboxylate], the ΔTm at 10 µM on CK1g3 was 0.1 °C; at Erk1, -0.3 °C; on PIM1, 2.9 °C; on CDK2, 0.2 °C; at MST3, 0.2 °C; at PIM2, 2.1 °C. Besides, the ΔTm at 10 µM on RHOK amounted to 0.5 °C.
Consider `NC1=NC(=O)/C(=C2\CCNC(=O)c3[nH]c(Br)cc32)N1` [Hymenialdisine, hymenialdisine, reference compound], for which the ΔTm at 10 µM was 4.4 °C on DYRK1A; 0.8 °C at DYRK2; 3.5 °C on CK1g3 (inhibitor 10 μM); 7.2 °C on CLK3; 0.6 °C on PIM1 (inhibitor 10 μM); 4.8 °C on CK1e. Moreover, the ΔTm at 10 µM at CLK1 was 7.8 °C; on CLK2, 4.4 °C; on CDK2 (inhibitor 10 μM), 1.5 °C; on CLK4, 7 °C; on MST3 (inhibitor 10 μM), 1 °C; on PIM2 (inhibitor 10 μM), 3.5 °C. Also, at RHOK (inhibitor 10 μM), the ΔTm at 10 µM was found to be 0.7 °C.
For the molecule `CCOC(=O)c1c(C(C#N)=CN)c2ccc(Cl)c(Cl)c2n1C` (mixture of isomers) [KH-CB20, (E/Z)-Ethyl 3-(2-Amino-1-Cyanovinyl)-6,7-Dichloro-1-Methyl-1H-Indole-2-Carboxylate], the ΔTm at 10 µM at CK1g3 was 0.3 °C; at Erk1 it was 0.1 °C; on PIM1, 3 °C; at CDK2, 0.2 °C; on MST3, -0.1 °C; at PIM2 it was 2.1 °C. In addition, the ΔTm at 10 µM at RHOK came out at 0.3 °C.
`Cn1c2c(Cl)c(Cl)ccc2c2c(C#N)c[nH]c(=O)c21` [compound 3, 7,8-Dichloro-9-Methyl-1-Oxo-2,9-Dihydro-1H-Pyrido[3,4-b]Indole-4-Carbonitrile]: the ΔTm at 10 µM at DYRK1A was 5.1 °C; on DYRK2 it was 2.1 °C; at CK1g3 (inhibitor 10 μM) it was 0 °C; at CLK3, 7.9 °C; on Erk1 (inhibitor 10 μM), -0.5 °C; on PIM1 (inhibitor 10 μM), 3.4 °C. Further, the ΔTm at 10 µM at CK1e amounted to 0.9 °C; on CLK1 it was 10.9 °C; at CLK2, 6.3 °C; at CDK2 (inhibitor 10 μM), 0.4 °C; on CLK4, 9.6 °C; on MST3 (inhibitor 10 μM), 0.1 °C. Besides, the ΔTm at 10 µM was determined as 3 °C at PIM2 (inhibitor 10 μM) and 0.9 °C on RHOK (inhibitor 10 μM).
`CCOC(=O)c1c(C(C#N)=CN(C)C)c2ccc(Cl)c(Cl)c2n1C` (mixture of isomers) [compound 2, (E/Z)-Ethyl 6,7-Dichloro-3-[1-Cyano-2-(Dimethylamino)Vinyl]-1-Methyl-1H-Indole-2-Carboxylate]: the ΔTm at 10 µM was determined as 0.6 °C at DYRK1A; 0.7 °C on DYRK2; 0.5 °C at CK1g3 (inhibitor 10 μM); 1.7 °C at CLK3; 0.1 °C at Erk1 (inhibitor 10 μM); 2.5 °C at PIM1 (inhibitor 10 μM). The ΔTm at 10 µM on CK1e is 0.3 °C; at CLK1 it was 5.6 °C; at CLK2, 3 °C; at CDK2 (inhibitor 10 μM), -0.1 °C; on CLK4, 4.1 °C; on MST3 (inhibitor 10 μM), -1.1 °C. Further, the values for the ΔTm at 10 µM on PIM2 (inhibitor 10 μM) and on RHOK (inhibitor 10 μM) were 0.8 °C and 0.9 °C, respectively.
